Measurements as given in US9694003B2, “Formulations and methods for treating high intraocular pressure” (Bridge Pharma, Inc., priority 2015, dated 2017).

Legend:
Aspergillus brasiliensis = test: Preservation challenge test (USP 51), A. brasiliensis; type: cell-based; details: saline formulation, pH 5.0
Protocol: (§1) METHOD: The standardized Preservative Challenge Test (U.S. Pharmacopeia 51 Antimicrobial Effectiveness Testing) have been used for tests of self-preservation by norketotifen in concentrations to be used for patients suffering from allergic conjunctivitis and xerophthalmia. USP (51) is a standard test used to determine the antimicrobial effectiveness of test articles and ophthalmic formulations. The present tests were using 150 ml of each formulation and covered the mandatory five organisms: Escherichia coli (fermentative G−), Pseudomonas aeruginosa (non-fermentative G−), Staphylococcus aureus (G+), Aspergillus brasiliensis (mold), and Candida albicans (yeast). The number of inoculated cells was 0.5×10^5 per mL and the incubation temperature was 25° C. for all inoculations. Plating for measuring of recoveries were performed weekly over 4 weeks. The norketotifen formulations were defined as being self-preserving only if the numbers of cell colonies remained constant (fungi) and were declining (bacteria) according to the strictly standardized USP 51 protocol. […] All solutions used in the antimicrobial studies were devoid of added preservatives.
(§2) USP Criteria for Tested Microorganisms (Category 1)
(§3) Yeast and Molds (Fungi): No increase from the initial calculated count at 14 or 28 days.

Candida albicans = test: Preservation challenge test (USP 51), C. albicans; type: cell-based; details: saline formulation, pH 5.0
Protocol: as §1, §2, §3

Escherichia coli = test: Preservation challenge test (USP 51), E. coli; type: cell-based; details: saline formulation, pH 5.0
Protocol: as §1, §2
(§4) Bacteria: Not less than a 3.0 logarithmic reduction from the initial count to the count at 14 days, and no increase from the counts at 14 days to the counts at 28 days.

Staphylococcus aureus = test: Preservation challenge test (USP 51), S. aureus; type: cell-based; details: saline formulation, pH 5.0
Protocol: as §1, §2, §4

Pseudomonas aeruginosa = test: Preservation challenge test (USP 51), P. aeruginosa; type: cell-based; details: saline formulation, pH 5.0
Protocol: as §1, §2, §4

[1] = test system: Escherichia coli, Pseudomonas aeruginosa, Staphylococcus aureus, Aspergillus brasiliensis, Candida albicans; test: Preservative Challenge Test (USP 51 Antimicrobial Effectiveness Testing), all five organisms; type: cell-based; details: ocular formulation without preservatives, concentrations useful for decreasing IOP
Protocol: METHOD: The standardized Preservative Challenge Test (U.S. Pharmacopeia 51 Antimicrobial Effectiveness Testing) have been used for tests of self-preservation by norketotifen in concentrations to be used for patients suffering from allergic conjunctivitis and xerophthalmia. USP (51) is a standard test used to determine the antimicrobial effectiveness of test articles and ophthalmic formulations. The present tests were using 150 ml of each formulation and covered the mandatory five organisms: Escherichia coli (fermentative G−), Pseudomonas aeruginosa (non-fermentative G−), Staphylococcus aureus (G+), Aspergillus brasiliensis (mold), and Candida albicans (yeast). The number of inoculated cells was 0.5×10^5 per mL and the incubation temperature was 25° C. for all inoculations. Plating for measuring of recoveries were performed weekly over 4 weeks. The norketotifen formulations were defined as being self-preserving only if the numbers of cell colonies remained constant (fungi) and were declining (bacteria) according to the strictly standardized USP 51 protocol. Tests were performed at pH 4.0, pH 4.5, pH 5.0 and pH 6.0 and the test articles were dissolved in BSA/water (BSA=bovine serum albumin) containing at least 0.01 percent norketotifen (calculated as free base). […]
as §3

[2] = test system: intraocular pressure in the eyes of rabbits; test: Intraocular pressure during repeated daily norketotifen eye-drops; type: in vivo; details: 6 rabbits
Protocol: (§5) Fifty-two rabbits (26F+26M) were assigned to four groups and were administered repeated daily doses of norketotifen HF solutions by the ocular route, 0.00, 0.0345, 0.0690 and 0.138 wt % for 6 weeks. […] In addition to regular toxicology parameters, ophthalmic parameters and ocular irritation scores were assessed. Blood samples were collected at predetermined time intervals. Plasma sample were analyzed using a validated LCMS-MS method. Plasma pharmacokinetics was calculated.
In the previously described Ocular Irritation/Toxicity Study (Example 7), intraocular pressure was measured in the eyes of one group of rabbits (3M+3F), before, during and after repeated daily ocular treatment with norketotifen eye-drops. […] The group tested for effects on IOP consisted of 12 eyes and the dose administered was 0.14 wt % and norketotifen was administered daily for 6 weeks, followed by a two-week recovery period without norketotifen administration. Day 42 was the last day of the treatment period and Day 56 was the last day of the recovery period.

[3] = Solubility of norketotifen HF in non-aqueous carriers; type: physicochemical
Source text: The intraocular formulations contain a carrier, such as water which is the carrier for an aqueous solution. Non-aqueous carriers include polyethylene glycol (PEG) and/or propylene glycol (PG) can be used in ophthalmic compositions. […] Norketotifen can be dissolved in water in concentrations up to about 0.2 wt %. Exemplary non-aqueous solvents include polyethylene glycol (about 0.1% to about 90%) and propylene glycol (about 0.1% to about 90%).

rabbits = test: Ocular irritation/toxicity study, repeated daily ocular doses; type: in vivo; details: repeated daily doses for 6 weeks, highest concentration tested
Protocol: as §5

cornea = details: topical application to the eye, usual clinical concentration; cited from earlier work
macrophages = details: cited from earlier work
eye = details: cited from earlier work
trabecular mesh = details: within 15 minutes of exposure; cited from earlier work

Compound	A. brasil CFU/ml (Aspergillus brasiliensis; Day 0)	A. brasil CFU/ml (Aspergillus brasiliensis; Day 14)	A. brasil Log Reduc (Aspergillus brasiliensis; Day 14)	A. brasil CFU/ml (Aspergillus brasiliensis; Day 28)	A. brasil Log Reduc (Aspergillus brasiliensis; Day 28)	C. albic CFU/ml (Candida albicans; Day 0)	C. albic CFU/ml (Candida albicans; Day 14)	C. albic CFU/ml (Candida albicans; Day 28)	C. albic Log Reduc (Candida albicans; Day 28)	E. coli CFU/ml (Escherichia coli; Day 0)	E. coli CFU/ml (Escherichia coli; Day 14)	E. coli Log Reduc (Escherichia coli; Day 14)	E. coli CFU/ml (Escherichia coli; Day 28)	E. coli Log Reduc (Escherichia coli; Day 28)	S. aureus CFU/ml (Staphylococcus aureus; Day 0)	S. aureus CFU/ml (Staphylococcus aureus; Day 14)	S. aureus Log Reduc (Staphylococcus aureus; Day 14)	S. aureus CFU/ml (Staphylococcus aureus; Day 28)	S. aureus Log Reduc (Staphylococcus aureus; Day 28)	P. aerugin CFU/ml (Pseudomonas aeruginosa; Day 0)	other results
CN1CCC(=C2c3ccccc3CC(=O)c3sccc32)CC1.O=C(O)/C=C/C(=O)O [KETO, RS-ketotifen hydrogen fumarate, reference compound]	3.6E+05 CFU/ml	4.8E+05 CFU/ml	None	2.0E+05 CFU/ml	0.25	7.9E+05 CFU/ml	3.0E+03 CFU/ml	1.1E+03 CFU/ml	0.25	1.5E+06 CFU/ml	2.5E+04 CFU/ml	1.78	2.6E+06 CFU/ml	None	2.0E+06 CFU/ml	3.3E+06 CFU/ml	None	3.6E+06 CFU/ml	None	3.1E+05 CFU/ml	P. aerugin CFU/ml (Pseudomonas aeruginosa; Day 14): 1.5E+4 CFU/ml; P. aerugin Log Reduc (Pseudomonas aeruginosa; Day 14): 1.31; P. aerugin CFU/ml (Pseudomonas aeruginosa; Day 28): 2.3E+05 CFU/ml; P. aerugin Log Reduc (Pseudomonas aeruginosa; Day 28): 0.13; self-preservation test, conclusion [1]: not pass the self-preservation test
O=C(O)C=CC(=O)O.O=C1Cc2ccccc2C(=C2CCNCC2)c2ccsc21 [norketotifen HF, RS-norketotifen hydrogen fumarate]	7.0E+05 CFU/ml	5.75E+02 CFU/ml	3.09	3.10E+02 CFU/ml	3.35	6.0E+05 CFU/ml	<5.0+00 CFU/ml	<5.0+00 CFU/ml	>5.08	8.5E+05 CFU/ml	<5.0+00 CFU/ml	>5.23	<5.0+00 CFU/ml	>5.23	2.5E+05 CFU/ml	<5.0+00 CFU/ml	>4.70	<5.0+00 CFU/ml	>4.70	4.7E+05 CFU/ml	IOP (mm Hg; ± SD) ([2]; Day 1 (pretest), 12 eyes): 20.4 ± 2.9 mm Hg; IOP (mm Hg; ± SD) ([2]; Day 42 (treatment), 0.14 wt % eye-drops daily for 6 weeks, P = 0.0005 vs. Day 1): 16.5 ± 1.7 mm Hg; IOP (mm Hg; ± SD) ([2]; Day 56 (recovery, two weeks without dosing), P < 0.0001 vs. Day 42): 20.5 ± 1.6 mm Hg; solubility in polyethylene glycol (PEG 300) ([3]; PEG 300): about 0.15 percent w/w; solubility in propylene glycol ([3]; propylene glycol): up to 1.0 wt %; C. albic Log Reduc (Candida albicans; Day 14): >5.08; P. aerugin CFU/ml (Pseudomonas aeruginosa; Day 14): <5.0+00 CFU/ml; P. aerugin Log Reduc (Pseudomonas aeruginosa; Day 14): >4.79; P. aerugin CFU/ml (Pseudomonas aeruginosa; Day 28): <5.0+00 CFU/ml; P. aerugin Log Reduc (Pseudomonas aeruginosa; Day 28): >4.97; No-Observable-Adverse-Effect-Level (NOAEL) (rabbits): 0.138%
benzalkonium chloride [BAK]	–	–	–	–	–	–	–	–	–	–	–	–	–	–	–	–	–	–	–	–	concentration causing corneal neurotoxicity (cornea): 0.01%; concentration that stimulates macrophages, increases phagocytosis and releases cytokines (macrophages): 0.0001%; concentration inducing toxic ocular effects (eye): ≥ 0.0001%; concentration expressing toxicity that targets the trabecular mesh (trabecular mesh): 0.0001%
